Measurements reported in ChEMBL document CHEMBL1139263, “New lycorine-type alkaloid from Lycoris traubii and evaluation of antitrypanosomal and antimalarial activities of lycorine derivatives” (Bioorg Med Chem, 2008).
In brackets after ≈: the same amount, converted by molar mass. Values belong to the compound of their own block, whether it stands above or below them.

Columns and labels:
[1] = system: Trypanosoma brucei brucei; assay: Antitrypanosomal activity against Trypanosoma brucei brucei GUTat3.1 after 72 hrs by alamar blue assay; type: functional, organism-based; details: GUTat3.1, 72 h
Plasmodium falciparum [2] = assay: Antimalarial activity against drug-sensitive Plasmodium falciparum FCR3 infected human erythrocytes after 72 hrs; type: functional, organism-based; details: FCR3, 72 h
MRC5 = assay: Cytotoxicity against human MRC5 cells after 7 days by MTT assay; type: cell-based; details: MRC5, 168 h
[3] = Selectivity index ratio IC50 for human MRC5 cells to IC50 for Plasmodium falciparum FCR3; type: functional
[4] = Selectivity index ratio IC50 for human MRC5 cells to IC50 for Trypanosoma brucei brucei GUTat3.1; type: functional
Plasmodium falciparum [5] = assay: Antimalarial activity against drug-resistant Plasmodium falciparum K1 infected human erythrocytes after 72 hrs; type: functional, organism-based; details: K1, 72 h
[6] = Selectivity index ratio IC50 for human MRC5 cells to IC50 for Plasmodium falciparum K1; type: functional
Plasmodium falciparum [7] = assay: Antimalarial activity against Plasmodium falciparum D10; type: functional, organism-based
[8] = system: Trypanosoma brucei rhodesiense; assay: Antitrypanosomal activity against Trypanosoma brucei rhodesiense STIB900 trypomastigotes; type: functional, organism-based
Plasmodium falciparum [9] = assay: Antimalarial activity against Plasmodium falciparum FAC8; type: functional, organism-based

SMILES: CC(=O)O[C@H]1[C@H]2c3cc4c(cc3CN3CCC(=C[C@@H]1O)[C@H]23)OCO4
IC50 [1]: 5.22 µg/mL (≈ 15.8 µM) | IC50 (Plasmodium falciparum [2]): 0.3 µg/mL (≈ 0.911 µM) | IC50 (MRC5): 1.29 µg/mL (≈ 3.92 µM) | Ratio IC50 [3]: 4.3 | Ratio IC50 [4]: 0.2 | IC50 (Plasmodium falciparum [5]): 0.36 µg/mL (≈ 1.09 µM) | Ratio IC50 [6]: 3.6

SMILES: CC(=O)O[C@H]1[C@H]2c3cc4c(cc3CN3CCC(=C[C@@H]1OC(C)=O)[C@H]23)OCO4
IC50 (Plasmodium falciparum [7]): 1 µg/mL (≈ 2.69 µM) | IC50 [8]: 1 µg/mL (≈ 2.69 µM) | IC50 (Plasmodium falciparum [9]): 1 µg/mL (≈ 2.69 µM) | IC50 [1]: > 12.5 µg/mL | IC50 (MRC5): 18.1 µg/mL (≈ 48.8 µM) | Ratio IC50 [4]: <1.4 | IC50 (Plasmodium falciparum [5]): 7.6 µg/mL (≈ 20.5 µM) | Ratio IC50 [6]: 2.4

SMILES: CCC(=O)O[C@H]1[C@H]2c3cc4c(cc3CN3CCC(=C[C@@H]1O)[C@H]23)OCO4
IC50 [1]: 1.34 µg/mL (≈ 3.9 µM) | IC50 (Plasmodium falciparum [2]): 0.3 µg/mL (≈ 0.874 µM) | IC50 (MRC5): 4.99 µg/mL (≈ 14.5 µM) | Ratio IC50 [3]: 16.6 | Ratio IC50 [4]: 3.7 | IC50 (Plasmodium falciparum [5]): 0.37 µg/mL (≈ 1.08 µM) | Ratio IC50 [6]: 13.5

SMILES: CCCC(=O)O[C@H]1[C@H]2c3cc4c(cc3CN3CCC(=C[C@@H]1OC(=O)CCC)[C@H]23)OCO4
IC50 (Plasmodium falciparum [2]): 0.53 µg/mL (≈ 1.24 µM) | Ratio IC50 [3]: 27.5 | IC50 (Plasmodium falciparum [5]): 0.67 µg/mL (≈ 1.57 µM) | Ratio IC50 [6]: 21.7

SMILES: CCCC(=O)O[C@H]1[C@H]2c3cc4c(cc3CN3CCC(=C[C@@H]1O)[C@H]23)OCO4
IC50 [1]: 1.38 µg/mL (≈ 3.86 µM) | IC50 (Plasmodium falciparum [2]): 0.32 µg/mL (≈ 0.895 µM) | IC50 (MRC5): 3.6 µg/mL (≈ 10.1 µM) | Ratio IC50 [3]: 11.3 | Ratio IC50 [4]: 2.6 | IC50 (Plasmodium falciparum [5]): 0.41 µg/mL (≈ 1.15 µM) | Ratio IC50 [6]: 8.8

SMILES: C[C@@H](O)CC(=O)O[C@@H]1[C@H]2c3cc4c(cc3CN3CCC(=C[C@@H]1O)[C@H]23)OCO4
IC50 [1]: 2.45 µg/mL (≈ 6.56 µM) | IC50 (Plasmodium falciparum [2]): 0.49 µg/mL (≈ 1.31 µM) | IC50 (MRC5): 6.35 µg/mL (≈ 17 µM) | Ratio IC50 [3]: 13 | Ratio IC50 [4]: 2.6 | IC50 (Plasmodium falciparum [5]): 0.62 µg/mL (≈ 1.66 µM) | Ratio IC50 [6]: 10.2

SMILES: CC(=O)O[C@H]1C=C2CCN3Cc4cc5c(cc4[C@H]([C@@H]1O)[C@@H]23)OCO5
IC50 [1]: 0.15 µg/mL (≈ 0.455 µM) | IC50 (MRC5): 6.11 µg/mL (≈ 18.6 µM) | Ratio IC50 [4]: 40.7 | IC50 (Plasmodium falciparum [5]): 8.21 µg/mL (≈ 24.9 µM) | Ratio IC50 [6]: 0.7

SMILES: CCC(=O)O[C@H]1[C@H]2c3cc4c(cc3CN3CCC(=C[C@@H]1OC(=O)CC)[C@H]23)OCO4
IC50 (MRC5): > 23.8 µg/mL | IC50 (Plasmodium falciparum [5]): 4.2 µg/mL (≈ 10.5 µM) | Ratio IC50 [6]: >23.8

SMILES: C[C@H](O)CC(=O)O[C@H]1[C@H]2c3cc4c(cc3CN3CCC(=C[C@@H]1O)[C@H]23)OCO4
IC50 [1]: 1.9 µg/mL (≈ 5.09 µM) | IC50 (Plasmodium falciparum [2]): 0.45 µg/mL (≈ 1.21 µM) | IC50 (MRC5): 8.11 µg/mL (≈ 21.7 µM) | Ratio IC50 [3]: 18 | Ratio IC50 [4]: 4.3 | IC50 (Plasmodium falciparum [5]): 0.6 µg/mL (≈ 1.61 µM) | Ratio IC50 [6]: 13.5

SMILES: C[C@@H]1CC[C@H]2[C@@H](C)C(=O)O[C@@H]3O[C@@]4(C)CC[C@@H]1[C@]32OO4 [ARTEMISININ]
IC50 (Plasmodium falciparum [2]): 0.006 µg/mL (≈ 0.0213 µM) | Ratio IC50 [3]: 7528.3 | IC50 (Plasmodium falciparum [5]): 0.0057 µg/mL (≈ 0.0202 µM) | Ratio IC50 [6]: 7924.5

IC50 [1]: 2.27 µg/mL (≈ 12.5 µM)
SMILES: NCCCC(N)(C(=O)O)C(F)F (stereo not drawn) [EFLORNITHINE]
IC50 (MRC5): > 100 µg/mL | Ratio IC50 [4]: >44

IC50 [1]: 0.00158 µg/mL (≈ 0.00464 µM)
SMILES: N=C(N)c1ccc(OCCCCCOc2ccc(C(=N)N)cc2)cc1 [PENTAMIDINE]
IC50 (MRC5): 5.71 µg/mL (≈ 16.8 µM) | Ratio IC50 [4]: 3614

IC50 [1]: 1.58 µg/mL (≈ 1.22 µM)
SMILES: Cc1ccc(C(=O)Nc2ccc(S(=O)(=O)O)c3cc(S(=O)(=O)O)cc(S(=O)(=O)O)c23)cc1NC(=O)c1cccc(NC(=O)Nc2cccc(C(=O)Nc3cc(C(=O)Nc4ccc(S(=O)(=O)O)c5cc(S(=O)(=O)O)cc(S(=O)(=O)O)c45)ccc3C)c2)c1 [SURAMIN]
IC50 (MRC5): > 100 µg/mL | Ratio IC50 [4]: >63
